The results in this text go back to patent publication US8476255B2, “Histone deacetylase inhibitors” (Orchid Chemicals & Pharmaceuticals Limited, priority 2007, dated 2013).

For assay [1], the system named is NCIH460, HCT116 and U251 cells. The experiment in a line: Anti-cancer screen, mean GI50 over cell lines. Format: cell-based. Particulars: mean over cell lines; read-out: Cell growth inhibition Mean GI50. The gist of the method:
(§1)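 A570 read-out after a 3 h MTT step and DMSO solubilisation; a separate plate measured at drug addition served as T0. Treatment lasted 48 h at five concentrations (0.01–100 μM) after 24 h attachment in DMEM/10% FBS; SAHA as standard.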

The subject of the next assay is NCIH460 (lung) cells. Description: Anti-cancer screen (MTT), NCIH460. Format: cell-based. The conditions noted are these: Homo sapiens, NCI-H460, NCIH460, 48 hours, MTT; for GI50: read-out: Cell growth inhibition NCIH460 (Lung) GI50; for LC50: read-out: Cell growth inhibition NCIH460 (Lung) LC50; for IC (TGI): read-out: Cell growth inhibition NCIH460 (Lung) TGI. The gist of the method: as §1

Another assay has as its system U251 (glioma) cells. Description: Anti-cancer screen (MTT), U251. Format: cell-based. The conditions noted are these: Homo sapiens, U-251, U251, 48 hours, MTT; for GI50: read-out: Cell growth inhibition U251 (Glioma) GI50; for LC50 (concentration giving 50% net cell kill relative to the time-zero cell count): read-out: Cell growth inhibition U251 (Glioma) LC50; for IC (TGI): read-out: Cell growth inhibition U251 (Glioma) TGI. The gist of the method: as §1

A further assay concerns HCT 116 (colon) cells. Description: Anti-cancer screen (MTT), HCT 116. Type of assay: cell-based. The conditions noted are these: Homo sapiens, HCT-116, HCT116, 48 hours, MTT; for GI50: read-out: Cell growth inhibition HCT116 (Colon) GI50; for CC50: read-out: Cell growth inhibition HCT116 (Colon) LC50; for IC (TGI): read-out: Cell growth inhibition HCT116 (Colon) TGI. The gist of the method: as §1

Assay [2] deals with HDAC (Mouse Liver Extract). Description: HDAC inhibition assay using Boc-Lys(Ac)-AMC substrate. Particulars: mouse liver enzyme. Type of assay: biochemical. The gist of the method:
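Boc-Lys(Ac)-AMC substrate incubated with mouse liver extract as HDAC source, 5 min preincubation then 30 min at 37° C. Trypsin stop solution added (37° C., 15-30 min) to release AMC, read at ex 360/em 460 nm; buffer-only and substrate-only wells as blanks.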

Turning to `COc1ccc(/C(=C\c2ccc(F)cc2)C(=O)NCc2ccc(C(=O)NO)cc2)cc1` [Compound 49, 4-((2-(4-Methoxyphenyl)-3-(4-fluorophenyl)acrylamido)methyl)-N-hydroxybenzamide], the GI50 in assay [1] is 9.2 µM. In the assay on NCIH460 (lung) cells, the GI50 was determined as 19 µM, the LC50 came out at 89 µM and the IC (TGI) stood at 52.5 µM. Besides, in the assay with U251 (glioma) cells, the GI50 amounted to 5.4 µM, the LC50 (concentration giving 50% net cell kill relative to the time-zero cell count) stood at 81 µM and the IC (TGI) was determined as 34.5 µM. In the assay with HCT 116 (colon) cells, the GI50 amounted to 3.3 µM, the CC50 amounted to 66 µM and the IC (TGI) amounted to 9 µM. Also, in assay [2], the “HDAC inhibition % (1 μM)” value was found to be 45.5%, the “HDAC inhibition % (10 μM)” value is 69.7% and the IC50 stood at 0.33 µM.
As for `O=C(NCc1ccc(C(=O)NO)cc1)/C(=C/c1ccc(F)cc1)c1ccc(C(F)(F)F)cc1` [Compound 50, 4-((2-(4-Trifluoromethyllphenyl)-3-(4-fluorophenyl)acrylamido)methyl)-N-hydroxybenzamide], the GI50 in assay [1] was 34.3 µM. Besides, in the assay with NCIH460 (lung) cells, the GI50 is 38 µM, the LC50 amounted to 92 µM and the IC (TGI) was determined as 69 µM. Further, in the assay on U251 (glioma) cells, the GI50 was 43 µM, the LC50 (concentration giving 50% net cell kill relative to the time-zero cell count) came out at 87 µM and the IC (TGI) turned out to be 72 µM. In the assay with HCT 116 (colon) cells, the GI50 was 22 µM, the CC50 was 88 µM and the IC (TGI) came out at 55 µM. Further, in assay [2], the “HDAC inhibition % (1 μM)” value is reported as 50.1% and the “HDAC inhibition % (10 μM)” value is listed as 87.1%.
As for `O=C(NCc1ccc(C(=O)NO)cc1)/C(=C/c1ccc(F)cc1)c1ccccc1` [Compound 51, 4-((2-(Phenyl)-3-(4-fluorophenyl)acrylamido)methyl)-N-hydroxybenzamide], in assay [1], the GI50 stood at 12.5 µM. In addition, in the assay with NCIH460 (lung) cells, the GI50 is 24 µM, the LC50 was found to be 86 µM and the IC (TGI) is 60 µM. In addition, in the assay with U251 (glioma) cells, the GI50 was determined as 6 µM, the LC50 (concentration giving 50% net cell kill relative to the time-zero cell count) was 72 µM and the IC (TGI) stood at 48 µM. Further, in the assay with HCT 116 (colon) cells, the GI50 was 7.5 µM, the CC50 was determined as 83 µM and the IC (TGI) amounted to 36 µM. Moreover, in assay [2], the “HDAC inhibition % (1 μM)” value is on record as 74.5% and the “HDAC inhibition % (10 μM)” value came out at 90.8%.
Regarding `CSc1ccc(/C=C(/C(=O)NCc2ccc(C(=O)NO)cc2)c2ccc(F)cc2)cc1` [Compound 52, 4-((2-(4-Fluorophenyl)-3-(4-methylthiophenyl)acrylamido)methyl)-N-hydroxybenzamide], the GI50 in assay [1] was determined as 9.2 µM. Also, in the assay with NCIH460 (lung) cells, the GI50 came to 12 µM, the LC50 turned out to be 82 µM and the IC (TGI) was found to be 53 µM. For the same compound, in the assay with U251 (glioma) cells, the GI50 came out at 10 µM, the LC50 (concentration giving 50% net cell kill relative to the time-zero cell count) turned out to be 75 µM and the IC (TGI) is 54 µM. Further, in the assay on HCT 116 (colon) cells, the GI50 was found to be 5.6 µM, the CC50 stood at 69 µM and the IC (TGI) amounted to 9.6 µM. Besides, in assay [2], the “HDAC inhibition % (1 μM)” value turned out to be 83.5%, the “HDAC inhibition % (10 μM)” value is recorded as 95.7% and the IC50 turned out to be 0.06 µM.
`COc1ccc(/C=C(/C(=O)NCc2ccc(C(=O)NO)cc2)c2ccc(F)cc2)cc1` [Compound 53, 4-((2-(4-Fluorophenyl)-3-(4-methoxyphenyl)acrylamido)methyl)-N-hydroxybenzamide]: the GI50 in assay [1] is 3.8 µM. In the assay on NCIH460 (lung) cells, the GI50 was 5.5 µM, the LC50 was 49 µM and the IC (TGI) was determined as 20 µM. Moreover, in the assay on U251 (glioma) cells, the GI50 worked out at 2.9 µM, the LC50 (concentration giving 50% net cell kill relative to the time-zero cell count) turned out to be 30 µM and the IC (TGI) was 7 µM. In the assay on HCT 116 (colon) cells, the GI50 was 3 µM, the CC50 turned out to be 51 µM and the IC (TGI) turned out to be 17 µM. In assay [2], the “HDAC inhibition % (1 μM)” value was determined as 88.6%, the “HDAC inhibition % (10 μM)” value amounted to 94.4% and the IC50 is 0.04 µM.
As to `O=C(NCc1ccc(C(=O)NO)cc1)/C(=C/c1c(F)cc(F)cc1F)c1ccc(F)cc1` [Compound 54, 4-((2-(4-Fluorophenyl)-3-(2,4,6-trifluorophenyl)acrylamido)methyl)-N-hydroxybenzamide], the GI50 in assay [1] turned out to be 10.5 µM. Also, in the assay with NCIH460 (lung) cells, the GI50 stood at 8 µM, the LC50 is 68 µM and the IC (TGI) came to 24 µM. Besides, in the assay with U251 (glioma) cells, the GI50 stood at 19 µM, the LC50 (concentration giving 50% net cell kill relative to the time-zero cell count) turned out to be 64 µM and the IC (TGI) worked out at 25 µM. Further, in the assay with HCT 116 (colon) cells, the GI50 was found to be 4.4 µM, the CC50 came out at 59 µM and the IC (TGI) was 20 µM. In assay [2], the “HDAC inhibition % (1 μM)” value is on record as 67.5% and the “HDAC inhibition % (10 μM)” value came to 89.8%.
Take `CSc1ccc(/C=C(/C(=O)NCc2ccc(C(=O)NO)cc2)c2ccccc2Cl)cc1` [Compound 56, 4-((2-(2-Chlorophenyl)-3-(4-methylthiophenyl)acrylamido)methyl)-N-hydroxybenzamide]: in assay [1], the GI50 is more than 100 µM. Besides, in the assay on NCIH460 (lung) cells, the GI50 is more than 100 µM, the LC50 was more than 100 µM and the IC (TGI) is more than 100 µM. Besides, in the assay on U251 (glioma) cells, the GI50 came to 0.1 µM, the LC50 (concentration giving 50% net cell kill relative to the time-zero cell count) is more than 100 µM and the IC (TGI) came out at 0.1 µM. In addition, in the assay on HCT 116 (colon) cells, the GI50 is more than 100 µM, the CC50 is more than 100 µM and the IC (TGI) was more than 100 µM. In addition, in assay [2], the “HDAC inhibition % (1 μM)” value was 7.7% and the “HDAC inhibition % (10 μM)” value is 8.0%.
Consider `CSc1ccc(/C=C(/C(=O)NCc2ccc(C(=O)NO)cc2)c2ccsc2)cc1` [Compound 59, 4-((2-(Thiophen-3-yl)-3-(4-methylthiophenyl)acrylamido)methyl)-N-hydroxybenzamide], for which the GI50 in assay [1] was found to be 2.3 µM. In the assay on NCIH460 (lung) cells, the GI50 came to 2.3 µM, the LC50 came out at 30 µM and the IC (TGI) turned out to be 7 µM. In addition, in the assay with U251 (glioma) cells, the GI50 was determined as 1.5 µM, the LC50 (concentration giving 50% net cell kill relative to the time-zero cell count) was determined as 65 µM and the IC (TGI) amounted to 5.5 µM. Further, in the assay with HCT 116 (colon) cells, the GI50 was determined as 3 µM, the CC50 came to 60 µM and the IC (TGI) came out at 15 µM. In assay [2], the “HDAC inhibition % (1 μM)” value is 76.6%, the “HDAC inhibition % (10 μM)” value is 96.3% and half-maximal inhibition (IC50) required 0.03 µM.
On to `COc1cc(/C=C(/C(=O)NCc2ccc(C(=O)NO)cc2)c2ccc(F)cc2)ccc1F` [Compound 60, 4-((2-(4-Fluorophenyl)-3-(4-fluoro-3-methoxyphenyl)acrylamido)methyl)-N-hydroxybenzamide], for which, in assay [1], the GI50 came out at 17.3 µM. In the assay on NCIH460 (lung) cells, the GI50 was found to be 25 µM, the LC50 was 80 µM and the IC (TGI) came to 50 µM. Further, in the assay on U251 (glioma) cells, the GI50 stood at 17 µM, the LC50 (concentration giving 50% net cell kill relative to the time-zero cell count) came out at 99 µM and the IC (TGI) was 38 µM. In the assay on HCT 116 (colon) cells, the GI50 was found to be 10 µM, the CC50 worked out at 81 µM and the IC (TGI) was 50 µM. Besides, in assay [2], the “HDAC inhibition % (1 μM)” value was found to be 66.6% and the “HDAC inhibition % (10 μM)” value was 95.0%.
As to `COc1ccc(/C=C(/C(=O)NCc2ccc(C(=O)NO)cc2)c2ccc(C)cc2)cc1OC` [Compound 62, 4-((2-(4-Methylphenyl)-3-(3,4-dimethoxyphenyl)acrylamido)methyl)-N-hydroxybenzamide], the GI50 in assay [1] was 90 µM. Besides, in the assay on NCIH460 (lung) cells, the GI50 is more than 100 µM, the LC50 was more than 100 µM and the IC (TGI) is more than 100 µM. For the same compound, in the assay with U251 (glioma) cells, the GI50 is more than 100 µM, the LC50 (concentration giving 50% net cell kill relative to the time-zero cell count) is more than 100 µM and the IC (TGI) is more than 100 µM. Moreover, in the assay on HCT 116 (colon) cells, the GI50 worked out at 90 µM, the CC50 is more than 100 µM and the IC (TGI) is more than 100 µM. In addition, in assay [2], the “HDAC inhibition % (1 μM)” value worked out at 83.2% and the “HDAC inhibition % (10 μM)” value is given as 100.0%.
`COc1ccc(/C=C(/C(=O)NCc2ccc(/C=C/C(=O)NO)cc2)c2ccc(F)cc2)cc1OC` [Compound 77, (1E)-N-(4-(3-(Hydroxyamino)-3-oxoprop-1-enyl)benzyl)-2-(4-fluorophenyl)-3-(3,4-dimethoxyphenyl)acrylamide]: in assay [1], the GI50 is 1.7 µM. In the assay on NCIH460 (lung) cells, the GI50 turned out to be 2 µM, the LC50 is more than 100 µM and the IC (TGI) came out at 70 µM. For the same compound, in the assay with U251 (glioma) cells, the GI50 was determined as 2.6 µM, the LC50 (concentration giving 50% net cell kill relative to the time-zero cell count) was more than 100 µM and the IC (TGI) was determined as 19 µM. Further, in the assay on HCT 116 (colon) cells, the GI50 is 0.5 µM, the CC50 was 50 µM and the IC (TGI) was 6 µM. Moreover, in assay [2], the “HDAC inhibition % (1 μM)” value is given as 90.6%, the “HDAC inhibition % (10 μM)” value is given as 98.5% and the IC50 came to 0.05 µM.

As a reminder, the GI50 is the concentration giving 50% growth inhibition. The LC50 is the concentration lethal to half of the exposed cells or organisms. For orientation: IC50 means the point on the concentration scale where inhibition reaches its midpoint.
